# Data reported in paper PMC3468358, “Clinical, virological and biochemical evidence supporting the association of HIV-1 reverse transcriptase polymorphism R284K and thymidine analogue resistance mutations M41L, L210W and T215Y in patients failing tenofovir/emtricitabine therapy” (Retrovirology, 2012).
# Where two headings read alike, the source gives them in different places.
# Legend:
# [1] = molecular target: T1, HIV-1 RT M41L/L210W/T215Y (Human immunodeficiency virus type 1 group M subtype B, UniProt P03366, L809W/M640L/T814Y); test: Steady-state kinetics of nucleotide incorporation; format: biochemical; conditions: D38/25PGA for dTTP, D38T/25PGA for dATP
# T1 construct: His6 (C); made in house; host or cells: E. coli XL1 Blue
# Procedure: (§1) RTs were expressed in E. coli XL1 Blue and purified as p66/p51 heterodimers by ionic exchange, followed by immobilized metal affinity chromatography on Ni^2+-nitriloacetic acid-agarose. The p66 subunit was obtained with a His6 tag at its C-terminal end to facilitate its purification by metal affinity chromatography. Purity of the enzymes was assessed by SDS-polyacrylamide gel electrophoresis and RT concentrations were determined by active site titration as described.
# (§2) Nucleotide incorporation reactions under steady-state conditions were carried out as previously described. However, in the preincubation buffer, active RT and template-primers D38/25PGA or D38T/25PGA were present at concentrations of 7–20 nM and 60 nM, respectively. Elongation rates were determined with dTTP concentrations ranging from 0.05 to 20 μM or with dATP concentrations ranging from 12 nM to 10 μM, using reaction volumes of 20 μl. Catalytic constants kcat and Km were determined after fitting the elongation data to the Michaelis–Menten equation as described. Inhibition constants (Ki) for AZTTP and tenofovir-DP were determined under the conditions used for obtaining the catalytic constants of dTTP and dATP incorporation, respectively. In order to distinguish between dTTP and AZTTP, elongation reactions were carried out under conditions that allowed the incorporation of two nucleotides (i.e. T at position +1 and A at position +2). For this purpose dATP was supplied at 1 μM in all assays. The competition between tenofovir-DP and dATP was analyzed with template-primer D38T/25PGA. Assays were carried out with variable concentrations of dATP (as indicated above) and 2 μM dTTP to facilitate further extension of the primer when the inhibitor was not incorporated at position +1 of the DNA primer. Data were analyzed by using Lineweaver-Burk plots. Nucleotide incorporation reactions under pre-steady-state conditions were carried out with template-primer D38/25PGA, as described.
# WT HIV-1 RT (BH10) [2] = molecular target: T2, WT HIV-1 RT (BH10) (Human immunodeficiency virus type 1 group M subtype B, UniProt P03366); test: Steady-state kinetics of nucleotide incorporation; format: biochemical; conditions: D38/25PGA for dTTP, D38T/25PGA for dATP
# T2 construct: His6 (C); made in house; host or cells: E. coli XL1 Blue
# Procedure: as §1, §2
# [3] = molecular target: T3, HIV-1 RT M41L/L210W/T215Y/R284K (Human immunodeficiency virus type 1 group M subtype B, UniProt P03366, L809W/M640L/R883K/T814Y); test: Steady-state kinetics of nucleotide incorporation; format: biochemical; conditions: D38/25PGA for dTTP, D38T/25PGA for dATP
# T3 construct: His6 (C); made in house; host or cells: E. coli XL1 Blue
# Procedure: as §1, §2
# [4] = molecular target: T1, HIV-1 RT M41L/L210W/T215Y; format: biochemical; conditions: M41L/L210W/T215Y RT 210 nM, 3.2 mM ATP, terminated 26-mer primer on 38-nt DNA template 30 nM
# Procedure: (§3) The primer 25PGA was blocked at its 3´ end with d4TTP using terminal deoxynucleotidyltransferase (Roche), and excess nucleotides were eliminated by repeated passage through a mini Quick Spin column (Roche). The blocked primer was then labeled with [γ-^32P]ATP and T4 polynucleotide kinase and annealed to the DNA template D38, in order to obtain the template-primer D38/25PGA^d4T, used in the excision reactions. […] For this purpose, we preincubated the template-primer D38/^32P]25PGA (4.6 μM) with HIV-1BH10 RT (4 μM) in 65 μl of 50 mM Hepes pH 7.0 buffer, containing 15 mM NaCl, 15 mM magnesium acetate, 130 mM potassium acetate, 1 mM dithiothreitol, and 5% polyethylene glycol for 10 minutes at 37°C. Then, 35 μl of 6 mM AZTTP (diluted in the preincubation buffer) were added and incubated for another 30 minutes at 37°C to ensure that the primer was blocked completely. The RT was inactivated by heating the mixture for 10 minutes at 90°C. After slowly cooling the sample at room temperature, it was passaged several times through a mini Quick Spin column (Roche) to eliminate the free AZTTP. […] The excision of d4T monophosphate (d4TMP) from D38/25PGA^d4T was determined under single turnover conditions, as previously described.
# [5] = molecular target: T3, HIV-1 RT M41L/L210W/T215Y/R284K; format: biochemical; conditions: M41L/L210W/T215Y/R284K RT 210 nM, 3.2 mM ATP, terminated 26-mer primer on 38-nt DNA template 30 nM
# Procedure: as §3
# WT HIV-1 RT = molecular target: T4, WT HIV-1 RT (Human immunodeficiency virus type 1 group M subtype B, UniProt P03366); format: biochemical
# T4 construct: His6 (C); made in house; host or cells: E. coli XL1 Blue
# Procedure: as §3
# HIV-1 RT R284K = molecular target: T5, HIV-1 RT R284K (Human immunodeficiency virus type 1 group M subtype B, UniProt P03366, R883K); test: Kinetics of ATP-dependent excision from DNA/DNA template-primers (single turnover); format: biochemical; conditions: R284K RT 210 nM, 3.2 mM ATP, terminated 26-mer primer on 38-nt DNA template 30 nM
# T5 construct: His6 (C); made in house; host or cells: E. coli XL1 Blue
# Procedure: as §3
# [6] = tested on: wild-type HXB2 virus carrying the RT sequence of BH10; test: Phenotypic drug susceptibility of recombinant HIV-1 in MT-4 cells (tetrazolium-based colorimetric method); format: cell-based; conditions: average ± SD of at least three tests
# Procedure: (§4) Site-directed mutagenesis was carried out with the Quik-Change Site-Directed Mutagenesis kit (Stratagene) by following the manufacturer’s instructions, and using plasmids p66RTB [64] or p66RTB(LY) as templates. The plasmid p66RTB contains the nucleotide sequence encoding for the 66-kDa subunit of HIV-1BH10 RT, and p66RTB(LY) encodes a p66 derivative with thymidine analogue resistance mutations M41L and T215Y. […] All introduced mutations were confirmed by DNA sequencing. Recombinant HIV-1 was obtained as previously described. […] MT-4 cells were used to propagate the recombinant virus. The nucleotide sequence of the RT-coding region was fully determined in order to check for reversions or undesired mutations. MT-4 cells and the deleted HXB2-D clone were obtained from the AIDS Reagent Program (Medical Research Council).
# (§5) Viable cells at different drug concentrations were quantified with a tetrazolium-based colorimetric method. Replication kinetics of wild-type and mutant viruses were assayed by infecting peripheral blood mononuclear cells (PBMCs) (mixed from two healthy donors), previously stimulated with phytohemagglutinin and interleukin 2 [26]. In these assays, viral replication rates were obtained from the amounts of HIV-1 p24^Gag antigen produced during the exponential phase of viral growth, as described previously. Growth competition assays in MT-4 cells were carried out as previously described, in the absence and in the presence of tenofovir disoproxil fumarate at concentrations ranging from 5 to 80 nM. A multiplicity of infection of 0.001 was used and competing viruses were mixed at a 50:50 ratio. RT inhibitors were obtained from the NIH AIDS Research and Reference Reagent Program.
# [7] = tested on: HIV-1 construct with RT R284K; test: as above; format: cell-based
# Procedure: as §4, §5
# [8] = tested on: HIV-1 construct with RT M41L/L210W/T215Y/R284K; test: as above; format: cell-based
# Procedure: as §4, §5
# [9] = tested on: HIV-1 construct with RT M41L/L210W/T215Y; test: as above; format: cell-based
# Procedure: as §4, §5
# [10] = molecular target: T1, HIV-1 RT M41L/L210W/T215Y; test: Inhibition constants under steady-state nucleotide incorporation conditions; format: biochemical
# Procedure: as §1, §2
# WT HIV-1 RT (BH10) [11] = molecular target: T2, WT HIV-1 RT (BH10); test: as above; format: biochemical
# Procedure: as §1, §2
# [12] = molecular target: T3, HIV-1 RT M41L/L210W/T215Y/R284K; test: as above; format: biochemical
# Procedure: as §1, §2
# [13] = molecular target: T1, HIV-1 RT M41L/L210W/T215Y; test: Single-nucleotide incorporation under pre-steady-state conditions; format: biochemical; conditions: D38/25PGA, 80 μM dTTP
# Procedure: as §2, with “Nucleotide incorporation reactions under pre-steady-state conditions were carried out with template-primer D38/25PGA, as described.” left out
# [14] = molecular target: T3, HIV-1 RT M41L/L210W/T215Y/R284K; test: as above; format: biochemical; conditions: D38/25PGA, 80 μM dTTP
# Procedure: as §2, with “Nucleotide incorporation reactions under pre-steady-state conditions were carried out with template-primer D38/25PGA, as described.” left out
# [15] = Human immunodeficiency virus 1, HXB2, MT4, WT virus
# [16] = Human immunodeficiency virus 1, MT4, average ± SD of at least three tests
structure (smiles),measurement,setting,value
Nc1ncnc2c1ncn2[C@H]1C[C@H](O)[C@@H](COP(=O)(O)OP(=O)(O)OP(=O)(O)O)O1 [dATP],Km,[1],0.0321 ± 0.0096 µM
same,kcat,[1],0.095 ± 0.0145 s⁻¹
same,Km,WT HIV-1 RT (BH10) [2],0.0258 ± 0.0067 µM
same,kcat,WT HIV-1 RT (BH10) [2],0.0645 ± 0.0165 s⁻¹
same,Km,[3],0.0159 ± 0.0025 µM
same,kcat,[3],0.1682 ± 0.0245 s⁻¹
"Cc1cn([C@H]2C=C[C@@H](COP(=O)(O)O)O2)c(=O)[nH]c1=O [d4TMP, d4T monophosphate]",kobs of ATP-dependent excision reaction,[4],0.0372 ± 0.00158 min⁻¹
same,kobs of ATP-dependent excision reaction,[5],0.037 ± 0.00229 min⁻¹
same,kobs of ATP-dependent excision reaction,WT HIV-1 RT,0.00337 ± 0.000193 min⁻¹
same,kobs of ATP-dependent excision reaction,HIV-1 RT R284K,0.00262 ± 0.000142 min⁻¹
"CC(C)OC(=O)OCOP(=O)(CO[C@H](C)Cn1cnc2c(N)ncnc21)OCOC(=O)OC(C)C.O=C(O)/C=C/C(=O)O [Tenofovir, tenofovir disoproxil fumarate]",IC50,[6]; WT virus,6.7 ± 2.2 nM
same,fold increase in IC50 relative to the wild-type HXB2 virus control,[7],1.8
same,IC50,"[7]; R284K virus, average ± SD of at least three tests",12.1 ± 5.3 nM
same,fold increase in IC50 relative to the wild-type HXB2 virus control,[8],2.7
same,IC50,"[8]; M41L/L210W/T215Y/R284K virus, average ± SD of at least three tests",18.1 ± 4.4 nM
same,fold increase in IC50 relative to the wild-type HXB2 virus control,[9],1.6
same,IC50,"[9]; M41L/L210W/T215Y virus, average ± SD of at least three tests",11 ± 4.6 nM
Cc1cn([C@H]2C[C@H](N=[N+]=[N-])[C@@H](CO[P@](=O)(O)O[P@](=O)(O)OP(=O)(O)O)O2)c(=O)[nH]c1=O [AZTTP],Ki,[10],2180 ± 170 nM
same,Ki,"WT HIV-1 RT (BH10) [11]; competition with dTTP, template-primer D38/25PGA, read-out: Ki(AZTTP)",2100 ± 380 nM
same,Ki,[12],2320 ± 740 nM
"CC(Cn1cnc2c(N)ncnc21)OCP(=O)(O)OP(=O)(O)OP(=O)(O)O (stereo in doubt) [Tenofovir-DP, tenofovir diphosphate]",Ki,"[10]; M41L/L210W/T215Y RT, competition with dATP, template-primer D38T/25PGA, read-out: Ki(Tenofovir-DP)",2630 ± 640 nM
same,Ki,"WT HIV-1 RT (BH10) [11]; competition with dATP, template-primer D38T/25PGA, read-out: Ki(Tenofovir-DP)",3590 ± 260 nM
same,Ki,"[12]; M41L/L210W/T215Y/R284K RT, competition with dATP, template-primer D38T/25PGA, read-out: Ki(Tenofovir-DP)",2540 ± 550 nM
Nc1nc(=O)n([C@@H]2CS[C@H](CO)O2)cc1F [Emtricitabine],IC50,[6]; [15],144 ± 69.9 nM
same,fold increase in IC50 relative to the wild-type HXB2 virus control,[7],0.7
same,IC50,[7]; [16],104 ± 81.5 nM
same,fold increase in IC50 relative to the wild-type HXB2 virus control,[8],2.0
same,IC50,[8]; [16],295 ± 93.7 nM
same,fold increase in IC50 relative to the wild-type HXB2 virus control,[9],1.6
same,IC50,[9]; [16],227 ± 113 nM
Cc1cn([C@H]2C[C@H](O)[C@@H](COP(=O)(O)OP(=O)(O)OP(=O)(O)O)O2)c(=O)[nH]c1=O [dTTP],Km,[1],0.117 ± 0.0219 µM
same,kcat,[1],0.0588 ± 0.0015 s⁻¹
same,Km,WT HIV-1 RT (BH10) [2],0.108 ± 0.0129 µM
same,kcat,WT HIV-1 RT (BH10) [2],0.0523 ± 0.00917 s⁻¹
same,Km,[3],0.184 ± 0.0061 µM
same,kcat,[3],0.0943 ± 0.00383 s⁻¹
same,nucleotide incorporation rate (kobs),[13],21.5 ± 4.4 s⁻¹
same,nucleotide incorporation rate (kobs),[14],38.8 ± 9.4 s⁻¹
Cc1cn([C@H]2C[C@H](N=[N+]=[N-])[C@@H](COP(=O)(O)O)O2)c(=O)[nH]c1=O [AZTMP],kobs of ATP-dependent excision reaction,[4],0.0469 ± 0.00169 min⁻¹
same,kobs of ATP-dependent excision reaction,[5],0.0364 ± 0.00308 min⁻¹
same,kobs of ATP-dependent excision reaction,"WT HIV-1 RT; WT RT 210 nM, 3.2 mM ATP, terminated 26-mer primer on 38-nt DNA template 30 nM",0.00282 ± 0.000148 min⁻¹
same,kobs of ATP-dependent excision reaction,HIV-1 RT R284K,0.00242 ± 0.000122 min⁻¹
"Cc1cn([C@H]2C=C[C@@H](CO)O2)c(=O)[nH]c1=O [d4T, 2´,3´-didehydro-2´,3´-dideoxythymidine]",IC50,[6]; [15],276 ± 90.5 nM
same,fold increase in IC50 relative to the wild-type HXB2 virus control,[7],0.5
same,IC50,[7]; [16],130 ± 24.8 nM
same,fold increase in IC50 relative to the wild-type HXB2 virus control,[8],1.0
same,IC50,[8]; [16],287 ± 84.5 nM
same,fold increase in IC50 relative to the wild-type HXB2 virus control,[9],0.8
same,IC50,[9]; [16],217 ± 75.5 nM
